Here are results for 28 compounds from patent US6579882B2, “Cell adhesion-inhibiting antiinflammatory compounds” (Abbott Laboratories, priority 1998, dated 2003).

Type in all cases: cell-based
Holding throughout (conditions): 1 μM compound, primary human umbilical vein endothelial cells, compound 24 hours, then TNF 5 ng/mL 6 hours; for inhibition at 1 µM: Homo sapiens, Endothelial cell

In one assay the test system is E-Selectin. As to the kind of experiment: CAM ELISA: E-selectin expression on TNF-stimulated HUVECs. The protocol: (§1) Pooled primary human umbilical vein endothelial cells (HtVEC's) (Clonetics) between passages 3 and 7 were plated in 96-well plates (Costar), 100 μL/well, 5×10^4 cells/mL in Clonetics EBM/2% FBS/EGF/Bovine brain extract/gentamicin in the absence of hydrocortisone. The following day, compounds of the invention were added in 10 μL/well medium, and the plates were incubated at 37° C. 24 hours after compound addition, TNF (Gibco/BRL) in 10 μL/well medium was added to a final concentration of 5 ng/mL, and the cells were incubated an additional 6 hours at 37° C. Then media was removed, and the plates were washed once with D-PBS (Gibco/BRL) and treated with primary antibodies (Becton Dickinson, City), 100 μL/well in D-PBS/2% BSA (Sigma)/0.01% azide. Primary antibodies at an initial concentration of 1 mg/mL were used at the following dilutions: anti-ELAM-1, 1:2000, anti-ICAM-1, 1:2000 and anti-VACM-1, 1:3000. Plates were stored overnight at 4° C., washed 3 times with D-PBS, and treated with secondary antibody (Jackson Labs), 100 μL/well 1:8000 dilution HRP-conjugated donkey anti-mouse IgG(H+L) in D-PBS/2%BSA. Plates were incubated a minimum of 1 hour at room temperature, washed 3 times with D-PBS and treated with 100 μL of orhto-phenylene diamine-2 HCl reagent per well. Plates were developed approximately 15 minutes and neutralized with 100 μL/well 1N sulfuric acid. Absorbance was read at 490 nm.

The next assay deals with ICAM-1. As to the kind of experiment: CAM ELISA: ICAM-1 expression on TNF-stimulated HUVECs. The protocol: as §1
In a further assay the test system is VCAM-1. As to the kind of experiment: CAM ELISA: VCAM-1 expression on TNF-stimulated HUVECs. The protocol:
as §1

Regarding `COc1ccccc1-c1cc2c(Oc3ccc(Cl)cc3)cncc2s1` [Example 124, 4-(4-chlorophenoxy)-2-(2-methoxyphenyl)thieno[2,3-c]pyridine], the figures for the inhibition at 1 µM with E-Selectin, with ICAM-1 and with VCAM-1 were 18%, 29% and 26%, respectively.
Turning to `CNC(=O)c1cc2c(Oc3ccc(-n4cncn4)cc3)cncc2s1` [Example 219, N-Methyl-4-[4-(1H-1,2,4-triazol-1-yl)phenoxy]thieno[2,3-c]pyridine-2-carboxamide], the inhibition at 1 µM is 62% in the assay with E-Selectin, 68% with ICAM-1 and 50% in the assay with VCAM-1.
In the same order, the values of `NC(=O)c1cc2c(C=Cc3ccccc3)cncc2s1` [Example 329, 4-(2-Phenylethenyl)thieno[2,3-c]pyridine-2-carboxamide] are 72%, 62% and 64%.
In the same order, the values of `CNC(=O)c1cc2c(Oc3ccc(C4(CO)CC4)cc3)cncc2s1` [Example 225, 4-{4-[1-(Hydroxymethyl)cyclopropyl]phenoxy}-N-methylthieno[2,3-c]pyridine-2-carboxamide] are 75%, 78% and 60%.
With `NC(=O)CNC(=O)c1cc2c(Oc3ccc(Br)cc3)cncc2s1` [Example 161, N-(2-Amino-2-oxoethyl)-4-(4-bromophenoxy)thieno[2,3-c]pyridine-2-carboxamide], the values for the inhibition at 1 µM with E-Selectin, in the assay with ICAM-1 and in the assay on VCAM-1 were 51%, 58% and 51%, respectively.
Turning to `NC(=O)c1cc2c(C(=O)Nc3ccc(Cl)cc3)cncc2s1` [Example 238, N-4-(4-Chlorophenyl)thieno[2,3-c]pyridine-2,4-dicarboxamide], the “CAM ELISA % Inhibition at 1 μM E-Selectin” value in the assay on E-Selectin was 46%. The “CAM ELISA % Inhibition at 1 μM ICAM-1” value in the assay with ICAM-1 is given as 47%. Further, the “CAM ELISA % Inhibition at 1 μM VCAM-1” value in the assay on VCAM-1 worked out at 17%.
For the compound `O=C(NCCN1CCOCC1)c1cc2c(Oc3ccc(Cl)cc3)cncc2s1` [Example 119, 4-(4-chlorophenoxy)-N-[2-(4-morpholinyl)ethyl]thieno[2,3-c]pyridine-2-carboxamide], the inhibition at 1 µM in the assay with E-Selectin was determined as 59%; with ICAM-1, 61%; with VCAM-1, 36%.
Consider `CNC(=O)c1cc2c(Oc3ccc(C(C)=O)cc3)cncc2s1` [Example 202, 4-(4-Acetylphenoxy)-N-methylthieno[2,3-c]pyridine-2-carboxamide], for which the inhibition at 1 µM worked out at 80% in the assay on E-Selectin, 68% in the assay on ICAM-1 and 49% with VCAM-1.
Regarding `CNC(=O)c1cc2c(Oc3ccc(-c4noc(C(F)(F)F)n4)cc3)cncc2s1` [Example 220, N-Methyl-4-[4-[5-(trifluoromethyl)-1,2,4-oxadiazol-3-yl]phenoxy]thieno[2,3-c]pyridine-2-carboxamide], the values for the inhibition at 1 µM in the assay on E-Selectin, in the assay on ICAM-1 and in the assay on VCAM-1 were 60%, 51% and 32%, respectively.
With `CCOC(=O)c1cccc(Oc2cncc3sc(C(N)=O)cc23)c1` [Example 79, ethyl 3-[[2-(aminocarbonyl)thieno[2,3-c]pyridin-4-yl]oxy]benzoate], the inhibition at 1 µM with E-Selectin was determined as 66%; with ICAM-1, 63%; with VCAM-1, 38%.
In the same order, the values of `Nc1nnc(-c2cc3c(Oc4ccc(C(F)(F)F)cc4)cncc3s2)o1` [Example 280, 5-{4-[4-(Trifluoromethyl)phenoxy]thieno[2,3-c]pyridin-2-yl}-1,3,4-oxadiazol-2-amine] are 73%, 77% and 69%.
On to `CNC(=O)c1cc2c(Oc3ccc(/C=C/C(=O)NCCN4CCOCC4)cc3)cncc2s1` [Example 210], for which, in the assay with E-Selectin, the “CAM ELISA % Inhibition at 1 μM E-Selectin” value stood at 64%. The “CAM ELISA % Inhibition at 1 μM ICAM-1” value in the assay with ICAM-1 amounted to 58%. In the assay with VCAM-1, the “CAM ELISA % Inhibition at 1 μM VCAM-1” value was found to be 42%.
Consider `NC(=O)c1cc2c(Oc3ccc(-n4ccnc4)cc3)cncc2s1` [Example 217, 4-[4-(1H-Imidazol-1-yl)phenoxy]thieno[2,3-c]pyridine-2-carboxamide], for which the inhibition at 1 µM in the assay with E-Selectin is 64%; in the assay on ICAM-1, 63%; with VCAM-1, 42%.
As for `NC(=O)c1cc2c(Oc3cccc(C(F)(F)F)c3)cncc2s1` [Example 184, 4-[3-(Trifluoromethyl)phenoxy]thieno[2,3-c]pyridine-2-carboxamide], the inhibition at 1 µM in the assay with E-Selectin is 52%; with ICAM-1 it was 56%; in the assay with VCAM-1, 30%.
For the compound `CNC(=O)c1cc2c(Oc3ccc(Cl)cc3)cnc(Cl)c2s1` [Example 312, 7-Chloro-4-(4-chlorophenoxy)-N-methylthieno[2,3-c]pyridine-2-carboxamide], the inhibition at 1 µM with E-Selectin came out at 64%; in the assay on ICAM-1 it was 76%; in the assay on VCAM-1 it was 42%.
As to `Nc1nc(-c2cc3c(Oc4ccc(Cl)cc4)cncc3s2)no1` [Example 289, 3-[4-(4-Chlorophenoxy)thieno[2,3-c]pyridin-2-yl]-1,2,4-oxadiazol-5-amine], the inhibition at 1 µM was 64% in the assay on E-Selectin, 62% with ICAM-1 and 52% in the assay with VCAM-1.
In the same order, the values of `NC(=O)c1cc2c(Oc3cccnc3)cncc2s1` [Example 170, 4-(3-Pyridinyloxy)thieno[2,3-c]pyridine-2-carboxamide] are 66%, 67% and 53%.
Turning to `Cc1c(C(N)=O)sc2cncc(Oc3ccc(Cl)cc3)c12` [Example 125, 4-(4-Chlorolphenoxy)-3-methylthienol[2,3-c]pyridine-2-carboxamide], the “CAM ELISA % Inhibition at 1 μM E-Selectin” value in the assay on E-Selectin is recorded as 72%. Besides, in the assay on ICAM-1, the “CAM ELISA % Inhibition at 1 μM ICAM-1” value was 69%. Further, in the assay with VCAM-1, the “CAM ELISA % Inhibition at 1 μM VCAM-1” value is 44%.
For `CC(C)OC(=O)OC[n+]1cc(Oc2ccc(Cl)cc2)c2cc(C(N)=O)sc2c1` [Example 233, 2-(Aminocarbonyl)-4-(4-chlorophenoxy)-6-{[(isopropoxycarbonyl)oxy]methyl}thieno[2,3-c]pyridin-6-ium], in the assay on E-Selectin, the “CAM ELISA % Inhibition at 1 μM E-Selectin” value is listed as 74%. Besides, in the assay on ICAM-1, the “CAM ELISA % Inhibition at 1 μM ICAM-1” value worked out at 79%. In addition, the “CAM ELISA % Inhibition at 1 μM VCAM-1” value with VCAM-1 came to 62%.
Take `Cc1ccc(Sc2ccnc3cc(C(N)=O)sc23)cc1` [Example 135, 7-[(4-methylphenyl)thio]thieno[3,2-b]pyridine-2-carboxamide]: the inhibition at 1 µM came to 29% in the assay on E-Selectin, 22% with ICAM-1 and 34% in the assay on VCAM-1.
Consider `NC(=O)c1sc2cncc(Cl)c2c1N` [Example 301, 3-Amino-4-chlorothieno[2,3-c]pyridine-2-carboxamide], for which the inhibition at 1 µM in the assay with E-Selectin was 44%; in the assay on ICAM-1, 48%; in the assay on VCAM-1, 34%.
Consider `OCC(O)c1cc2c(Oc3ccc(Br)cc3)cncc2s1` (stereo not drawn) [Example 255, 1-[4-(4-Bromophenoxy)thieno[2,3-c]pjridin-2-yl]-1,2-ethanediol], for which the “CAM ELISA % Inhibition at 1 μM E-Selectin” value in the assay on E-Selectin is 67%. In addition, the “CAM ELISA % Inhibition at 1 μM ICAM-1” value with ICAM-1 worked out at 65%. For the same compound, the “CAM ELISA % Inhibition at 1 μM VCAM-1” value with VCAM-1 was found to be 19%.
Turning to `N#Cc1ccc(Oc2cncc3sc(C(N)=O)cc23)cc1` [Example 187, 4-(4-Cyanophenoxy)thieno[2,3-c]pyridine-2-carboxamide], the inhibition at 1 µM in the assay with E-Selectin came out at 78%; with ICAM-1, 72%; in the assay with VCAM-1 it was 54%.
In the same order, the values of `Cc1ccc(Oc2cncc3sc(C(N)=O)cc23)cc1` [Example 60, 4-(4-methylphenoxy)thieno[2,3-c]pyridine-2-carboxamide] are 74%, 71% and 42%.
As for `O=C(O)CNC(=O)c1cc2c(Oc3ccc(Cl)cc3)cncc2s1` [Example 159], the “CAM ELISA % Inhibition at 1 μM E-Selectin” value with E-Selectin is 30%. The “CAM ELISA % Inhibition at 1 μM ICAM-1” value in the assay with ICAM-1 is recorded as 45%. In addition, in the assay on VCAM-1, the “CAM ELISA % Inhibition at 1 μM VCAM-1” value came to 13%.
For `NC(=O)c1cc2c(Oc3ccc(Br)cc3)cnc(Cl)c2s1` [Example 316, 4-(4-Bromophenoxy)-7-chlorothieno[2,3-c]pyridine-2-carboxamide], the inhibition at 1 µM with E-Selectin amounted to 76%; with ICAM-1, 68%; with VCAM-1, 42%.
In the same order, the values of `CNC(=O)c1cc2c(Oc3ccc(-n4cccn4)cc3)cncc2s1` [Example 218, N-Methyl-4-[4-(1H-pyrazol-1-yl)phenoxy]thieno[2,3-c]pyridine-2-carboxamide] are 66%, 64% and 51%.
`NC(=O)c1cc2c(OCc3ccccc3)cncc2s1` [Example 236, 4-(Benzyloxy)thieno[2,3-c]pyljdine-2-carboxamide]: the “CAM ELISA % Inhibition at 1 μM E-Selectin” value in the assay with E-Selectin is recorded as 59%. The “CAM ELISA % Inhibition at 1 μM ICAM-1” value in the assay with ICAM-1 is on record as 59%. Besides, the “CAM ELISA % Inhibition at 1 μM VCAM-1” value with VCAM-1 is reported as 33%.
